Results published in ChEMBL document CHEMBL4334544, “BRM Targeting Compounds for the Potential Treatment of Cancer” (ACS Med Chem Lett, 2020).

Experiments:
[1] = target: T1, Protein cereblon/SWI/SNF-related matrix-associated actin-dependent regulator of chromatin subfamily A member 2 (Homo sapiens, UniProt P51531+Q96SW2); assay: Protac activity at E3 ubiquitin ligase/BRM in human SW1573 cells assessed as E3 ubiquitin ligase-mediated BRM degradation at 0.3 to 10 uM incubated for 18 to 20 hrs by Western blot analysis relative to control; assay type: cell-based
T1 sequence (P51531 whole entry): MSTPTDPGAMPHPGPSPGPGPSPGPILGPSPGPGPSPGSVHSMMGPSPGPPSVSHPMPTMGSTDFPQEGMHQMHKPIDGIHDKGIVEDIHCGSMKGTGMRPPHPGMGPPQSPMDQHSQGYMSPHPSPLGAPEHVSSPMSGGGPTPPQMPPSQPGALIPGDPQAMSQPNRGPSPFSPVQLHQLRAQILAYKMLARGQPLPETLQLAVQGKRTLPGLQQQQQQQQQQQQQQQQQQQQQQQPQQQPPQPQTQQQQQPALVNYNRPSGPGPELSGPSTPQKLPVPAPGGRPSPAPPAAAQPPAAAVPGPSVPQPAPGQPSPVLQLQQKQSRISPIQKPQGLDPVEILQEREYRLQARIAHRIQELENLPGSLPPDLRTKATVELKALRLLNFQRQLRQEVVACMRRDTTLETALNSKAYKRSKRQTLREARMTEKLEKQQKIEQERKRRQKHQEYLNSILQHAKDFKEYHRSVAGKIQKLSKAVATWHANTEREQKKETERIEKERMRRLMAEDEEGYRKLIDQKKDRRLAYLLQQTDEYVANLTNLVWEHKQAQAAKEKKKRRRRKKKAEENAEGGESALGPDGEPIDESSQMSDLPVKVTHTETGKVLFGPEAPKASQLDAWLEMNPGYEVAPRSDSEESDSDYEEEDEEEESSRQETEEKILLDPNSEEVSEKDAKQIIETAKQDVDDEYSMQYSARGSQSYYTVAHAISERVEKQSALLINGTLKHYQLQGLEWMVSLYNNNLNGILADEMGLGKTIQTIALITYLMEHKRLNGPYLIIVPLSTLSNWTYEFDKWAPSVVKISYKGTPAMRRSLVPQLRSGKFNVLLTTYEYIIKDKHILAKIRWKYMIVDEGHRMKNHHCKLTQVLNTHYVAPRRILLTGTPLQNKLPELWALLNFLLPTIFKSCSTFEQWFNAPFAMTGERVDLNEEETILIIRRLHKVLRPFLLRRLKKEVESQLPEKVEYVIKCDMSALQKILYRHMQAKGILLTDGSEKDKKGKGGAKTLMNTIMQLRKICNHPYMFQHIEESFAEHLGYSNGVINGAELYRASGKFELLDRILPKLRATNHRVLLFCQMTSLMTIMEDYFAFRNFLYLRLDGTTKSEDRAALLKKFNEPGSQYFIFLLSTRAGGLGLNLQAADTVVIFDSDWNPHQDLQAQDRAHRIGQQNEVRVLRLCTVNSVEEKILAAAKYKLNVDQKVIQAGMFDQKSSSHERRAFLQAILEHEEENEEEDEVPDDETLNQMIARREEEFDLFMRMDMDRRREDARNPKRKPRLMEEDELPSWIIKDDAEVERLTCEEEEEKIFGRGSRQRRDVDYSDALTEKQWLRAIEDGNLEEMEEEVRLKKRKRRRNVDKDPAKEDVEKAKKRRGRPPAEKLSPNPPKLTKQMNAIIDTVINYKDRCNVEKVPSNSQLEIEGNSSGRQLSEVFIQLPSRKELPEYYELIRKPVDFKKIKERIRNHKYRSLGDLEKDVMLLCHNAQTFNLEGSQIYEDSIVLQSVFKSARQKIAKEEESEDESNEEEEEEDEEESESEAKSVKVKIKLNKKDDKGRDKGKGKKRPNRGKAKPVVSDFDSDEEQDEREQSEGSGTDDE
T1 sequence (Q96SW2 whole entry): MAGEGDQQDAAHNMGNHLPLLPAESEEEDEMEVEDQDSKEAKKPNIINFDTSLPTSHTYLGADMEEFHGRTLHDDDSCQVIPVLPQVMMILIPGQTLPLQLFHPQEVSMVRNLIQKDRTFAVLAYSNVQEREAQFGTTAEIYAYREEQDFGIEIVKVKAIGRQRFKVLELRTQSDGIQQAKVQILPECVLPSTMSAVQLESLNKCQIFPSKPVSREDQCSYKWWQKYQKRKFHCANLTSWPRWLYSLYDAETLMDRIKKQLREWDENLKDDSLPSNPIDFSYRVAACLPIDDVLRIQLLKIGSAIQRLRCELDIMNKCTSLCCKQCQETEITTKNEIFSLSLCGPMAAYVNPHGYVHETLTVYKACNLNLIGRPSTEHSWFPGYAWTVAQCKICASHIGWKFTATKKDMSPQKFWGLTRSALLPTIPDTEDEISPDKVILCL

[2] = target: T2, von Hippel-Lindau disease tumor suppressor/SWI/SNF-related matrix-associated actin-dependent regulator of chromatin subfamily A member 4 (Homo sapiens, UniProt P51532+P40337); assay: Protac activity at E3 ubiquitin ligase/BRG1 (unknown origin) assessed as E3 ubiquitin ligase mediated BRG1 degradation at 0.3 to 10 uM relative to control
Target sequence in this assay (P40337 whole entry, looked up): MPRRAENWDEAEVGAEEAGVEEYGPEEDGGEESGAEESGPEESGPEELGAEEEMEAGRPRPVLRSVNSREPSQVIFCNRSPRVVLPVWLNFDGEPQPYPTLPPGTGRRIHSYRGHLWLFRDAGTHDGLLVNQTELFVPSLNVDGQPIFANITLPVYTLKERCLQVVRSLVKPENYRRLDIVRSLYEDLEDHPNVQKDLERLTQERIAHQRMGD
Target sequence in this assay (P51532 whole entry, looked up): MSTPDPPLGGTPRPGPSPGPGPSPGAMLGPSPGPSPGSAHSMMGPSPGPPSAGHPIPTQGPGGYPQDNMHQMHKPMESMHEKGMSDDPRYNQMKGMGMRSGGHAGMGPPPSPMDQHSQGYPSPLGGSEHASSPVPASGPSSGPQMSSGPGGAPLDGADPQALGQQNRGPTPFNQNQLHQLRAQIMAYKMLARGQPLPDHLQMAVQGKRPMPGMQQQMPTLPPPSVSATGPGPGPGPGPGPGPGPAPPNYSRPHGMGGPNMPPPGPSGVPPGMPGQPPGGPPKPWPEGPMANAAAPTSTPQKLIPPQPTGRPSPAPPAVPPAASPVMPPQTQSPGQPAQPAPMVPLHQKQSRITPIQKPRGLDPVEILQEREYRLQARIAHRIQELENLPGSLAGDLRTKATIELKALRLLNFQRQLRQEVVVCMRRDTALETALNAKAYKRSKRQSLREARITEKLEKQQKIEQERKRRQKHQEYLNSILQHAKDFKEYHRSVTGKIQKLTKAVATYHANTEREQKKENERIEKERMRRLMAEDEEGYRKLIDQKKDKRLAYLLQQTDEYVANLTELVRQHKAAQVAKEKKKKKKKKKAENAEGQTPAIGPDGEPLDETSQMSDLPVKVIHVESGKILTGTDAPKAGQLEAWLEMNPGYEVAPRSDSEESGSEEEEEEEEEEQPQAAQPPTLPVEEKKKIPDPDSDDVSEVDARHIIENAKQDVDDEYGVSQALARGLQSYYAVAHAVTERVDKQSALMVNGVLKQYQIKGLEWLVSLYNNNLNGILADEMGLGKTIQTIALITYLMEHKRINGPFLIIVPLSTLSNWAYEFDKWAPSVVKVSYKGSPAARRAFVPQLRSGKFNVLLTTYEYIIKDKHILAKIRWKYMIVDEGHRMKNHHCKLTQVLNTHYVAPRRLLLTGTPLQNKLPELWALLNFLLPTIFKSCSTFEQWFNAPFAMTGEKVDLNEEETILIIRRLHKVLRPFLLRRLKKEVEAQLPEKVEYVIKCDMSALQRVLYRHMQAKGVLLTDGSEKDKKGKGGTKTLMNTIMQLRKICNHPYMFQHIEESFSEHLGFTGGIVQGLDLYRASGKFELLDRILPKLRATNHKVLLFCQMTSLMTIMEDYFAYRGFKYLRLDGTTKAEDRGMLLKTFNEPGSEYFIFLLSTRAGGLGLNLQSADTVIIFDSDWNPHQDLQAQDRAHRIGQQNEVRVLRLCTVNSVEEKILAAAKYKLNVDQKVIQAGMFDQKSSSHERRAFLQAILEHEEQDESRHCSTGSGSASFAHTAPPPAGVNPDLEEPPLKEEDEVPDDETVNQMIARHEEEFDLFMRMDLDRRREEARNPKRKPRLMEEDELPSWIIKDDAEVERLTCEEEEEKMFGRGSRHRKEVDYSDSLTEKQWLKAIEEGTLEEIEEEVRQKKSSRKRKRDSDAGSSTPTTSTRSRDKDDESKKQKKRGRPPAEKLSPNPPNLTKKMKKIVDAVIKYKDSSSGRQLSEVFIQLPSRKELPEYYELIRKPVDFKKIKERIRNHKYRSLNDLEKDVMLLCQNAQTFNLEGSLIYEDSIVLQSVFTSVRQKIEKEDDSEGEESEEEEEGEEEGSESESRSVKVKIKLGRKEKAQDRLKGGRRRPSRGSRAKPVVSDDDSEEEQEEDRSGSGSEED

[3] = target: T2, von Hippel-Lindau disease tumor suppressor/SWI/SNF-related matrix-associated actin-dependent regulator of chromatin subfamily A member 4; assay: Protac activity at E3 ubiquitin ligase/BRG1 (unknown origin) assessed as E3 ubiquitin ligase mediated BRG1 degradation
Target sequence in this assay (P51532 whole entry): as the sequence (P51532 whole entry, looked up) above
Target sequence in this assay (P40337 whole entry): as the sequence (P40337 whole entry, looked up) above

[4] = target: T1, Protein cereblon/SWI/SNF-related matrix-associated actin-dependent regulator of chromatin subfamily A member 2; assay: Protac activity at E3 ubiquitin ligase/BRM in human SW1573 cells assessed as E3 ubiquitin ligase-mediated BRM degradation incubated for 18 to 20 hrs by Western blot analysis; assay type: cell-based

Cc1ncsc1-c1ccc([C@H](C)NC(=O)[C@@H]2C[C@@H](O)CN2C(=O)[C@@H](c2cc(OCCN3CCC(OC4CN(c5cc(N6C7CCC6CN(c6cc(-c8ccccc8O)nnc6N)C7)ccn5)C4)CC3)no2)C(C)C)cc1
%max [1]: > 75%
%max [2]: > 75%
DC50 [3]: 2.5 to 10 nM
DC50 [4]: < 2.5 nM

Cc1ncsc1-c1ccc([C@H](C)NC(=O)[C@@H]2C[C@@H](O)CN2C(=O)[C@@H](c2cc(C#CCN3CCC(O[C@H]4C[C@H](Oc5cc(N6C7CCC6CN(c6cc(-c8ccccc8O)nnc6N)C7)ccn5)C4)CC3)no2)C(C)C)cc1
%max [1]: > 75%
%max [2]: > 75%
DC50 [3]: 2.5 to 10 nM
DC50 [4]: < 2.5 nM

Cc1ncsc1-c1ccc([C@H](C)NC(=O)[C@@H]2C[C@@H](O)CN2C(=O)[C@@H](c2cc(OCCCCN3CCN(CCCCOc4cc(N5C6CCC5CN(c5cc(-c7ccccc7O)nnc5N)C6)ccn4)CC3)no2)C(C)C)cc1
%max [1]: > 75%
%max [2]: > 75%
DC50 [3]: < 2.5 nM
DC50 [4]: < 2.5 nM

Cc1ncsc1-c1ccc([C@H](C)NC(=O)[C@@H]2C[C@@H](O)CN2C(=O)[C@@H](c2cc(N3CCC(O[C@H]4C[C@H](Oc5cc(N6C7CCC6CN(c6cc(-c8ccccc8O)nnc6N)C7)ccn5)C4)CC3)no2)C(C)C)cc1
%max [1]: > 75%
%max [2]: > 75%
DC50 [3]: < 2.5 nM
DC50 [4]: < 2.5 nM

Cc1ncsc1-c1ccc([C@H](C)NC(=O)[C@@H]2C[C@@H](O)CN2C(=O)[C@@H](c2cc(OC3CN(CCN4CCC(O[C@H]5C[C@H](Oc6cc(N7C8CCC7CN(c7cc(-c9ccccc9O)nnc7N)C8)ccn6)C5)CC4)C3)no2)C(C)C)cc1
%max [1]: > 75%
%max [2]: > 75%
DC50 [3]: 2.5 to 10 nM
DC50 [4]: < 2.5 nM

Cc1ncsc1-c1ccc([C@H](C)NC(=O)[C@@H]2C[C@@H](O)CN2C(=O)[C@@H](c2cc(OCCOCCOc3cc(N4C5CCC4CN(c4cc(-c6ccccc6O)nnc4N)C5)ccn3)no2)C(C)C)cc1
%max [1]: > 75%
%max [2]: > 75%
DC50 [3]: < 2.5 nM
DC50 [4]: < 2.5 nM
